Like-named read-outs stand apart in the source and are kept apart here. *1 amine or outer side, *2 acyl side, *3 side chain or, on linkers, in order; H or OH if unused. Where a SMILES comes first, the peptide text is derived from it. Where no end group is shown, it is not given here. Cysteamide = C(CS[*:3])N[*:1]
What was measured:
[1] = test system: HUVEC cell lines; experiment: Cytotoxicity of AAV-CPP complexes, XTT assay; format: cell-based; settings: CPP concentration of 500 μM, AAV-6-βGal MOI of 300, XTT after 2 days
Protocol: The cytoxicity of the AAV-CPP complexes was evaluated on HUVEC cell lines. AAV encoding beta galactosidase (AAV-6-βGal) at MOI of 300 were preincubated in PBS with increasing concentration of CPPs ranging from 1 to 500 μM for 30 min. Cells were treated with either free AAV (No CPP) or CPP/AAV complexes for 4 h, then the medium was replaced with fresh medium. Cytotoxicity of AAV-CPP complexes was determined using the XTT assay after 2 days. […] A low cytotoxicity of 5% for PEP-1 and PEP-2 and 8% for Pant were obtained for a CPP concentration of 500 μM.

[2] = test system: HCN2 cells; experiment: AAV-1-GFP transduction with CPPs, flow cytometry; format: cell-based, human; settings: 200 μM CPP; for cells expressing GFP: AAV-1 MOI of 500, HCN2, 5% in the absence of CPP; for increase of AAV-1 efficiency: MOI of 500, HCN2
Protocol: (§1) In this example different AAV serotypes including AAV 1, AAV2, AAV5, AAV6, AAV8 and AAV9 were tested against human hepatocytes (HepG2) and human neuronal cells (HCN2) in the presence or in the absence of CPPs including ADGN-103a, ADGN-103b, ADGN-100, ADGN-109, ADGN-106, PEP-1, PEP-2, CADY, and TAT-HA2.
(§2) AAV-1, AAV-2, AAV-5, and AAV-6 viruses encoding green fluorescent protein were obtained from Cell Biolabs Inc and AAV-8 from Vector Biolabs. Stock solutions of virus were obtained at 1χ10^13 GC/ml in PBS/0.01% and diluted 50-fold to 2×10^11 GC/ml before use.
(§3) AAV-1, AAV-2, AAV-5, and AAV6 encoding green fluorescent protein were used at low MOI of 500 (1-2×10^7 PFU) and AAV-8 at MOI of 1000 (2-4×10^7 PFU). HepG2 and HCN2 cells (1 10^6 cells per well) were cultured in a 24 well plate culture dish format. For MOI of 1000, 5 μl of AAV virus diluted solutions were preincubated in PBS with increasing concentration of CPPs ranging from 0.1 to 200 μM for 30 min. For MOI of 500, 2.5 μl of AAV virus diluted solutions were preincubated in PBS with increasing concentration of CPPs ranging from 0.1 to 200 μM for 30 min. 200 μl of AAV or CPP/AAV complex solutions were added to cultured cells (1×10^6 cells per well). Cells are treated with either free AAV or CPP/AAV complexes for 4 h. and then the medium is replaced with fresh medium.
(§4) Viral mediated transgene expression was monitored by flow cytomety 2 days post-infection in HepG2 and Human neuronal HCN2. The percentage of GFP expressing cells were detected by flow cytometry and the increase of AAV infectivity was calculated based on the number of GFP-positive cells. Results are reported in FIGS. 5A-5D, 6A-6D, 7A-7D, 8A-8D, and 9A-9D.

[3] = test system: HepG2 cells; experiment: AAV-1-GFP transduction with CPPs, flow cytometry; format: cell-based, human; settings: 200 μM CPP; for cells expressing GFP: AAV-1 MOI of 500, HepG2, 5% in the absence of CPP
Protocol: as §1, §2, §3, §4

[4] = test system: HCN2 cells; experiment: AAV-2-GFP transduction with CPPs, flow cytometry; format: cell-based, human; settings: 200 μM CPP; for cells expressing GFP: AAV-2 MOI of 500, HCN2, 4% in the absence of CPP
Protocol: as §1, §2, §3, §4

[5] = test system: HepG2 cells; experiment: AAV-2-GFP transduction with CPPs, flow cytometry; format: cell-based, human; settings: 200 μM CPP; for cells expressing GFP: AAV-2 MOI of 500, HepG2, 4% in the absence of CPP
Protocol: as §1, §2, §3, §4

[6] = test system: HCN2 cells; experiment: AAV-5-GFP transduction with CPPs, flow cytometry; format: cell-based, human; settings: 200 μM CPP; for cells expressing GFP: AAV-5 MOI of 500, HCN2, 5% in the absence of CPP
Protocol: as §1, §2, §3, §4

[7] = test system: HepG2 cells; experiment: AAV-5-GFP transduction with CPPs, flow cytometry; format: cell-based, human; settings: 200 μM CPP; for cells expressing GFP: AAV-5 MOI of 500, HepG2, 5% in the absence of CPP
Protocol: as §1, §2, §3, §4

[8] = test system: HCN2 cells; experiment: AAV-6-GFP transduction with CPPs, flow cytometry; format: cell-based, human; settings: for cells expressing GFP: 200 μM of CPP, AAV-6 MOI of 500, HCN2, 4% in the absence of CPP
Protocol: as §1, §2, §3, §4

[9] = test system: HepG2 cells; experiment: AAV-6-GFP transduction with CPPs, flow cytometry; format: cell-based, human; settings: 200 μM CPP; for cells expressing GFP: AAV-6 MOI of 500, HepG2, 5% in the absence of CPP
Protocol: as §1, §2, §3, §4

[10] = test system: HCN2 cells; experiment: AAV-8-GFP transduction with CPPs, flow cytometry; format: cell-based, human; settings: 200 μM CPP, AAV-8 MOI of 1000, HCN2; 5% in the absence of CPP
Protocol: as §1, §2, §3, §4

[11] = test system: HepG2 cells; experiment: AAV-8-GFP transduction with CPPs, flow cytometry; format: cell-based, human; settings: 200 μM CPP, AAV-8 MOI of 1000, HepG2; 5% in the absence of CPP
Protocol: as §1, §2, §3, §4

[12] = test system: HepG2 cells; experiment: AAV-2 transfection of HepG2 cells with TAT-HA2 or LAH4 peptides (Liu et al., Molecular Therapy, 2014); format: cell-based, human; settings: 200 μM, GFP-positive cells
[13] = test system: HepG2 cells; settings: AAV-2, HepG2, Liu et al., cited from earlier work
[14] = molecular target: Adeno-associated virus AAV-2 encoding green fluorescent protein (adeno-associated virus serotype 2) (UniProt P03135); experiment: cell-based or functional assay
[15] = test system: HepG2 and HCN2 cells; experiment: AAV-1-GFP transduction with CPPs, statements for both cell lines; format: cell-based, human
Protocol: as §1, §2, §3, §4

[16] = test system: HepG2 and HCN2 cells; experiment: AAV-2-GFP transduction with CPPs, statements for both cell lines; format: cell-based, human
Protocol: as §1, §2, §3, §4

[17] = test system: HepG2 and HCN2 cells; experiment: AAV-5-GFP transduction with CPPs, statements for both cell lines; format: cell-based, human
Protocol: as §1, §2, §3, §4

[18] = test system: HepG2 and HCN2 cells; experiment: AAV-6-GFP transduction with CPPs, statements for both cell lines; format: cell-based, human
Protocol: as §1, §2, §3, §4

[19] = test system: HepG2 and HCN2 cells; experiment: AAV-8-GFP transduction with CPPs, statements for both cell lines; format: cell-based, human
Protocol: as §1, §2, §3, §4

[20] = molecular target: Adeno-associated virus AAV-2 encoding green fluorescent protein (adeno-associated virus serotype 2) (UniProt P03135); experiment: cell-based or functional assay; remark: listed apart in the source
[21] = 200 μM concentration of peptide
[22] = 1 μM concentration, both cell lines

CC(=O)N[C@@H](CCCCN)C(=O)N[C@@H](CCC(=O)O)C(=O)N[C@H](C(=O)N[C@@H](Cc1c[nH]c2ccccc12)C(=O)N[C@@H](Cc1c[nH]c2ccccc12)C(=O)N[C@@H](CCC(=O)O)C(=O)N[C@H](C(=O)N[C@@H](Cc1c[nH]c2ccccc12)C(=O)N[C@@H](Cc1c[nH]c2ccccc12)C(=O)N[C@H](C(=O)N[C@@H](CCC(=O)O)C(=O)N[C@@H](Cc1c[nH]c2ccccc12)C(=O)N[C@@H](CO)C(=O)N[C@@H](CCC(N)=O)C(=O)N1CCC[C@H]1C(=O)N[C@@H](CCCCN)C(=O)N[C@@H](CCCCN)C(=O)N[C@@H](CCCCN)C(=O)N[C@@H](CCCNC(=N)N)C(=O)N[C@@H](CCCCN)C(=O)N[C@H](C(=O)NCCS)C(C)C)[C@@H](C)O)[C@@H](C)O)[C@@H](C)O [PEP-1] (Ac-KETWWETWWTEWSQPKKKRKV-Cysteamide)
cytotoxicity [1]: 5%

CC(=O)N[C@@H](CCCCN)C(=O)N[C@@H](CCC(=O)O)C(=O)N[C@H](C(=O)N[C@@H](Cc1c[nH]c2ccccc12)C(=O)N[C@@H](Cc1ccccc1)C(=O)N[C@@H](CCC(=O)O)C(=O)N[C@H](C(=O)N[C@@H](Cc1c[nH]c2ccccc12)C(=O)N[C@@H](Cc1ccccc1)C(=O)N[C@H](C(=O)N[C@@H](CCC(=O)O)C(=O)N[C@@H](Cc1c[nH]c2ccccc12)C(=O)N[C@@H](CO)C(=O)N[C@@H](CCC(N)=O)C(=O)N1CCC[C@H]1C(=O)N[C@@H](CCCCN)C(=O)N[C@@H](CCCCN)C(=O)N[C@@H](CCCCN)C(=O)N[C@@H](CCCNC(=N)N)C(=O)N[C@@H](CCCCN)C(=O)N[C@H](C(=O)NCCS)C(C)C)[C@@H](C)O)[C@@H](C)O)[C@@H](C)O [PEP-2] (Ac-KETWFETWFTEWSQPKKKRKV-Cysteamide)
cytotoxicity [1]: 5%

CRRRQRRKKRGGDIMGEWGNEIFGAIAGFLG [TAT-HA2, reference compound]
cells expressing GFP [2]: 22% | increase of AAV-1 efficiency [2]: 3 fold | cells expressing GFP [3]: 27% | cells expressing GFP [4]: 20% | increase of AAV-2 efficiency ([4]; MOI of 500, HCN2): 3 fold | cells expressing GFP [5]: 23% | increase of AAV-2 efficiency ([5]; MOI of 500, HepG2): 5 fold | cells expressing GFP [6]: 10% | increase of AAV-5 efficiency ([6]; MOI of 500, HCN2): 2 fold | cells expressing GFP [7]: 11% | increase of AAV-5 efficiency ([7]; MOI of 500, HepG2): 3 fold | increase of AAV-6 efficiency ([8]; 200 μM CPP, MOI of 500, HCN2): 3 fold | cells expressing GFP [8]: 22% | cells expressing GFP [9]: 35% | increase of AAV-6 efficiency ([9]; MOI of 500, HepG2): about 10 fold | cells expressing GFP [10]: 12% | cells expressing GFP [11]: 15% | fold lower than the results obtained with the ADGN peptides [12]: 4 fold | GFP-positive cells [13, 21]: about 25% | GFP-positive cells ([13]; concentration of CPPs): 12%

KKALLALALHHLAHLALHLALALKKAC [LAH4, a leucine- and histidine-rich peptide]
fold lower than the results obtained with the ADGN peptides [12]: 2 fold | GFP-positive cells [13, 21]: ~45% | GFP-positive cells ([13]; concentration of CPPs): 12%

PEP-1-DOPA (peptide)
efficacy (GFP expressing 293 T cells) after incubation of the complexes in 50% serum [14]: 30 % reduction

PEP-1-PEG (peptide)
efficacy (GFP expressing 293 T cells) after incubation of the complexes in 50% serum [14]: 30 % reduction

βALRWWLRWASRWFSRWAWWR (not fully specified (residue 1, N-terminus); printed as βALRWWLRWASRWFSRWAWWR) [ADGN-109]
cells expressing GFP [2]: 62% | increase of AAV-1 efficiency [2]: 15 fold | cells expressing GFP [3]: 61% | increase of AAV-1 efficiency ([3]; MOI of 500, HepG2): 16 fold | impact on AAV-1 infectivity [15, 22]: significant impact | share of the final improvement obtained with 200 μM ([15]; 10 μM concentration of CPP, AAV-1, both cell lines): about 60% | cells expressing GFP [4]: 58% | cells expressing GFP [5]: 90% | impact on AAV-2 infectivity [16, 22]: significant impact | share of the final improvement obtained with 200 μM ([16]; 10 μM concentration of CPP, AAV-2, both cell lines): about 70% | cells expressing GFP [6]: 37% | cells expressing GFP [7]: 51% | impact on AAV-5 infectivity [17, 22]: significant impact | share of the final improvement obtained at 200 μM ([17]; 10 μM concentration, AAV-5, both cell lines): about 50% | cells expressing GFP [8]: 62% | cells expressing GFP [9]: 82% | impact on AAV-6 infectivity [18, 22]: significant impact | share of the final improvement obtained at 200 μM ([18]; 10 μM concentration, AAV-6, both cell lines): about 70% | cells expressing GFP [10]: 44% | cells expressing GFP [11]: 45% | impact on AAV-8 infectivity [19, 22]: significant impact | share of the final improvement obtained at 200 μM ([19]; 10 μM concentration, AAV-8, both cell lines): about 60%

B1: PEP-1 (N-acetylated, C-terminal cysteamide; Example 5) (peptide)
peptide: KETWWETWWTEWSQPKKKRKV
modifications: not fully specified (N-terminus, C-terminus)
level of GFP expressing cells (293 T cells, flow cytometry) after 1 h incubation of the complexes in 20% serum [20]: 60 % reduction | level of GFP expressing cells (293 T cells, flow cytometry) after 1 h incubation of the complexes in 50% serum [20]: 80 % reduction
